Experimental data reported in US20140105919A1, “SYNERGISTIC INHIBITION OF ERBB2/ERBB3 SIGNAL PATHWAYS IN THE TREATMENT OF CANCER” (Institute for Cancer Research d/b/a The Research Institute …, priority 2011, published 2014).

What was measured:
Assay type in all cases: cell-based
BT474 cells = assay: Cell sensitization to MM-111 and gamma-secretase inhibitor, CellTiter-Blue viability; details: BT474, 72 hrs; Compound E 1 μM, MM-111 2 μM, alone or combined; vs DMSO
Procedure: Inhibition of the Notch pathway was carried out with a compound. Breast cancer cells (BT474 cells) were plated in 96-well plates in DMEM/F12 media with 1% FBS and incubated in a humidified CO2 incubator at 37° C. for 24 hours prior to drug treatment. The media was replaced with DMEM/F12 media with 1% FBS containing DMSO, 1 μM Compound E (Santa Cruz, SC-221433), 2 μM MM-111 (Merrimack Pharmaceuticals), or combined Compound E and MM-111. Cells were incubated in the presence of drug for 72 hrs. CellTiter-Blue® (Promega) was used to measure cell viability according to the standard protocol. The total incubation time in the presence of CellTiter-Blue® was 4 hours, and fluorescence was measured using a Perkin Elmer Envision Plate Reader.

[1] = test system: Notch signaling (CBF1 reporter) in BT-474 cells; assay: Notch-dependent activation of CBF-1 reporter (Dual-Luciferase Assay); details: MM-111 and Compound E
Procedure: BT-474 cells were co-transfected with CBF1::firefly luciferase and pRL-TK (renilla luciferase) as an internal control for transfection efficiency. Cells were then treated with MM-111, MM-111 and Compound E, or Rituximab (control antibody), and the ratio of firefly/renilla expression was measured using the Dual-Luciferase Assay (Promega) according to the manufacturer's instructions.

[2] = test system: Notch target genes in MB-361/DYT2 cells; assay: Real time PCR of endogenous Notch target genes HES1, HES5, HEY1; details: MB361/DYT2; compared to untreated, DMSO or Rituximab
Procedure: MB-361/DYT2 cells were left untreated (NT) or treated with DMSO (vehicle for Compound E), rituximab (control antibody), Compound E, MM-111, or MM-111 and Compound E. Total RNA was extracted from cells using the RNeasy kit (Qiagen). Total RNA was reverse transcribed to cDNA, and real time PCR was performed, using ABI primer/probe sets, on cDNAs to detect relative expression of the validated Notch target genes HES1 (ABI Assay ID Hs00172878_m1), HES5 (ABI Assay ID Hs01387463_g1), or HEY1 (ABI Assay ID Hs01114113_m1).

[3] = test system: MB361/DYT2 breast cancer cells; assay: secondary validation screen with single siGENOME siRNAs with or without MM-111, CellTiter-Blue viability; set-up: Vehicle (viability score) / Drug (viability score): scale not given here; details: for Ratio (drug:vehicle viability): single siRNA; for Drug (viability score): single siRNA and MM-111; for Vehicle (viability score): single siRNA only (vehicle)
Procedure: Subsets of targets that met criteria of being expressed in the cells and having an FDR of <5% or being expressed in the cells, having an FDR <20%, and having a known connection to ErbB signaling, were validated in a secondary screen in which MB361/DYT2 breast cancer cells were treated with siRNA molecules from the Dharmacon® siGENOME library (Dharmacon, Inc.). Parallel cells were treated with the siRNA only (vehicle) or both the siRNA and the ErbB2/ErbB3 bispecific antibody MM-111, and sensitization of the cells was measured by the CellTiter-Blue® (Promega) viability assay.

Row | Compound | cell viability / cell killing (BT474 cells) | MM-111-induced CBF1 reporter activity [1] | expression of Notch target genes HES1, HES5, and HEY1 [2] | Ratio (drug:vehicle viability) [3] | Drug (viability score) [3] | Vehicle (viability score) [3]
1 | C[C@H](NC(=O)Cc1cc(F)cc(F)c1)C(=O)N[C@H]1N=C(c2ccccc2)c2ccccc2N(C)C1=O [Compound E] | no effect on viability | the activity is blocked | reduced |  |  | 
2 | CAUAAGCCCUGCAAGAAUG (listed as RNA, chemistry not given here; listed as Homo sapiens) [SEQ ID NO: 17, Dharmacon siGENOME siRNA targeting DLL1] |  |  |  | 0.823 | 0.812 | 0.987
3 | CCAAAGGCCUGACCGUUAA (listed as RNA, chemistry not given here; listed as Homo sapiens) [SEQ ID NO: 26, Dharmacon siGENOME siRNA targeting AAMP] |  |  |  | 0.844 | 0.821 | 0.973
4 | CCACACGGUUUAAGUCUAU (listed as RNA, chemistry not given here; listed as Homo sapiens) [SEQ ID NO: 50, Dharmacon siGENOME siRNA targeting RFNG] |  |  |  | 0.939 | 1.250 | 1.331
5 | GAAGAUACUUGGCACUAUU (listed as RNA, chemistry not given here; listed as Homo sapiens) [SEQ ID NO: 21, Dharmacon siGENOME siRNA targeting SC4MOL] |  |  |  | 0.877 | 0.955 | 1.089
6 | GCAGCAAGACCAAGAAAUC (listed as RNA, chemistry not given here; listed as Homo sapiens) [SEQ ID NO: 57, Dharmacon siGENOME siRNA targeting CYR61] |  |  |  | 0.856 | 0.846 | 0.988
7 | GGGUCGCUGUGAUGAAAUU (listed as RNA, chemistry not given here; listed as Homo sapiens) [SEQ ID NO: 45, Dharmacon siGENOME siRNA targeting DCI] |  |  |  | 0.762 | 0.627 | 0.823
8 | GGUGUUGUCUGGUCAGUAA (listed as RNA, chemistry not given here; listed as Homo sapiens) [SEQ ID NO: 19, Dharmacon siGENOME siRNA targeting NLK] |  |  |  | 0.776 | 0.991 | 0.993
9 | GGUUGUGCCUGGAGGUGGA (listed as RNA, chemistry not given here; listed as Homo sapiens) [SEQ ID NO: 24, Dharmacon siGENOME siRNA targeting TPT1] |  |  |  | 0.845 | 0.775 | 
